From patent US20090136720A1, “Azo Compound, Ink Composition, Recording Method and Colored Article” (priority 2006, published 2009)

Assay: Solubility of the azo compound
Format: physicochemical
Conditions: water; sodium salt

Structure (SMILES): Cc1cc(N=Nc2c(S(=O)(=O)O)cc3c(S(=O)(=O)O)c(N=Nc4cc(S(=O)(=O)O)c5cc(S(=O)(=O)O)c(N=Nc6ccc([N+](=O)[O-])cc6S(=O)(=O)O)c(O)c5c4N)ccc3c2O)c(OCCCS(=O)(=O)O)cc1N=Nc1cc(S(=O)(=O)O)cc2cc(S(=O)(=O)O)cc(O)c12 [Compound No. 3]
- solubility: ≥ 100 mg/mL
